test: Evaluation of hydrophobicity degree of dye by TLC (Rf value); format: physicochemical; conditions: of the dye used; TLC glass plate RP-18, methanol containing 1 wt % lithium chloride
Method: (Evaluation Method for Hydrophobicity Degree of Hydrophobic Dye Having Cyanine Structure) In order to compare the hydrophobicity degrees of hydrophobic dyes each having a cyanine structure, an evaluation was performed through use of a thin-layer liquid chromatography (hereinafter may be abbreviated as TLC) method. A TLC glass plate RP-18 (manufactured by Merck) was used as a plate for development, and a methanol solution containing 1 wt % of lithium chloride was used as a developing solvent. According to an ordinary method, a dye solution was spotted on the origin, and a relative migration distance (hereinafter may be abbreviated as Rf value) was calculated based on the following equation. Rf value=Distance from origin to center of spot of component/Distance from origin to solvent front

| Rf value | Structure (SMILES) |
| --- | --- |
| 0.5 | CCN1/C(=C/C=C/C=C/C=C/C2=[N+](CC)c3ccccc3C2(C)C)C(C)(C)c2ccccc21 [Chemical formula (A2), 3H-indolium, 1-ethyl-2-[7-(1-ethyl-1,3-dihydro-3,3-dimethyl-2H-indol-2-ylidene)-1,3,5-heptatrien-1-yl]-3,3-dimethyl-, iodide] |
| 0.45 | CN1/C(=C/C=C/C=C/C=C/C2=[N+](C)c3ccccc3C2(C)C)C(C)(C)c2ccccc21 [Chemical formula (A1), 1,1′,3,3,3′,3′-hexamethylindotricarbocyanine iodide] |
| 0.45 | CN1\C(=C/C=C/C=C/C=C/C2=[N+](C)c3ccccc3C2(C)C)C(C)(C)c2ccccc21 [Chemical formula (C1), 1,1′,3,3,3′,3′-hexamethylindotricarbocyanine perchlorate] |
| 0.31 | CN1/C(=C/C=C/C=C/C=C/C2=[N+](C)c3ccc4ccccc4c3C2(C)C)C(C)(C)c2c1ccc1ccccc21 [Chemical formula (C2), 1,1′,3,3,3′,3′-hexamethyl-4,4′,5,5′-dibenzo-2,2′-indotricarbocyanine perchlorate] |

| Structure (SMILES) | Rf value |
| --- | --- |
| CN1/C(=C/C=C2\CCCC(/C=C/C3=[N+](C)c4ccc5ccccc5c4C3(C)C)=C2Cl)C(C)(C)c2c1ccc1ccccc21 [Chemical formula (A3), 2-[2-[2-chloro-3-[2-(1,3-dihydro-1,1,3-trimethyl-2H-benzo[e]-indol-2-ylidene)-ethylidene]-1-cyclohexen-1-yl]-ethenyl]-1,1,3-trimethyl-1H-benzo[e]indolium perchlorate] | 0.09 |
